From patent US9447083B2, “N-acylhydrazone derivatives for selective T cell inhibitor and anti-lymphoid malignancy drug” (CHONG KUN DANG PHARMACEUTICAL CORP., priority 2012, dated 2016)

The molecules below were run on Jurkat T cells (assay: Pro-apoptotic activity on Jurkat T cells (FITC-Annexin V / 7-AAD flow cytometry)). Conditions: Homo sapiens, 72 hours, cells stained with FITC-Annexin V and 7-AAD among total cells, read-out: Cell Apoptosis Effect to Jurkat T Cell (% in 5 μM).
Assay type: cell-based
Procedure: In order to investigate the effects of the prepared compounds, the apoptosis-inducing effects of the compounds on human T cell acute lymphoblastic leukemia cell line, Jurkat T cells, were evaluated in the following manner.
Jurkat T cells cultured in RPMI medium containing 10% fetal bovine serum (FBS) were collected and stained with trypan blue (Sigma). […] Then, the cells were centrifuged at 1200 rpm at room temperature for 5 minutes and re-suspended in 10% FBS-containing RPMI medium at a concentration of 1.5×10^5 cells/mL. 200 μL of the cell suspension was dispensed into each well of a flat bottom 96-well plate (Costar). Then, the cells were treated with 10 μL of the diluted compounds in RPMI medium at final concentrations of […] or 5 μM, and incubated in a 5% CO2 incubator at 37° C. for 72 hours. In a vehicle control group, the cells were treated with 10 μL of RPMI medium containing 1% of dimetylsulfoxide (DMSO, Sigma). The incubated cells were harvested, put into 5-mL FACS tubes (BD Falcon), washed with 1 mL of phosphate buffered saline (PBS), and then re-suspended in 0.1 mL of binding buffer (10 mM Hepes-NaOH, pH 7.4, 140 mM NaCl, […] CaCl2). The suspended cells were stained with fluorescein isothiocyanate (FITC)-Annexin V (BD Biosciences) and 7-amino-actinomycin D (7-AAD, e-Biosciences) at room temperature for 15 minutes. The stained cells were suspended in 0.3 mL of binding buffer and analyzed by a flow cytometer. Apoptosis was determined by the ratio (%) of cells stained with FITC-Annexin V and 7-AAD among the total cells (see Tables 10 and 11).

Row | Compound | cytotoxicity at 5 µM
1 | O=C(COc1ccccc1C(F)(F)F)N/N=C/c1ccc2[nH]ccc2c1 [Compound 193] | 100%
2 | Cc1cc(C)c(OCC(=O)N(CCN2CCCC2)/N=C/c2ccc3cc[nH]c3c2)c(C)c1 [Compound 201] | 100%
3 | Cc1cc(C)c(OCC(=O)N(CCO)/N=C/c2cccc3[nH]ccc23)c(C)c1 [Compound 177, (E)-N′-((1H-indol-4-yl)methylene)-N-(2-hydroxyethyl)-2-(mesityloxy)acetohydrazide] | 100%
4 | Cc1cc(C)c(OCC(=O)N/N=C/c2ccc3[nH]ccc3c2)c(-c2cccnc2)c1 [Compound 184, (E)-N′-((1H-indol-5-yl)methylene)-2-(2,4-dimethyl-6-(pyridin-3-yl)phenoxy)acetohydrazide] | 100%
5 | Cc1cc(-c2cccnc2)cc(C)c1OCC(=O)N/N=C/c1ccc2cc[nH]c2c1 [Compound 139, (E)-N′-((1H-indol-6-yl)methylene)-2-(2,6-dimethyl-4-(pyridin-3-yl)phenoxy)acetohydrazide] | 100%
6 | Cc1cc(C)c(OCC(=O)N(COC(=O)c2ccc(CN3CCOCC3)cc2)/N=C/c2cccc3[nH]ccc23)c(C)c1 [Compound 245, (E)-(2-((1H-indol-4-yl)methylene)-1-(2-(mesityloxy)acetyl)hydrazinyl)methyl 4-(morpholinomethyl)benzoate] | 100%
7 | Cc1cc(Cl)cc(C)c1OCC(=O)N/N=C/c1c[nH]c2ccccc12 [Compound 156, (E)-N′-((1H-indol-3-yl)methylene)-2-(4-chloro-2,6-dimethylphenoxy)acetohydrazide] | 90%
8 | Cc1cc(C)c(NCC(=O)N/N=C/c2c[nH]c3ccccc23)c(C)c1 [Compound 136] | 100%
9 | Cc1cc(C)c(OCC(=O)N(CCO)/N=C/c2ccc3cc[nH]c3c2)c(C)c1 [Compound 195, (E)-N′-((1H-indol-6-yl)methylene)-N-(2-hydroxyethyl)-2-(mesityloxy)acetohydrazide] | 100%
10 | Cc1cc(Cl)cc(C)c1OCC(=O)N/N=C/c1cccc2[nH]ccc12 [Compound 155, (E)-N′-((1H-indol-4-yl)methylene)-2-(4-chloro-2,6-dimethylphenoxy)acetohydrazide] | 100%
11 | Cc1cc(C)c(OCC(=O)N(COC(=O)CN(C)C)/N=C/c2ccc3cc[nH]c3c2)c(C)c1 [Compound 236, (E)-(2-((1H-indol-6-yl)methylene)-1-(2-(mesityloxy)acetyl)hydrazinyl)methyl 2-(dimethylamino)acetate] | 100%

Same assay, conditions: Homo sapiens, 72 hours, cells stained with FITC-Annexin V and 7-AAD among total cells, read-out: Jurkat T Cell Apoptosis (% in 5 μM)

Row | Compound | cytotoxicity at 5 µM
12 | COc1ccc(OCC(=O)N/N=C/c2cccc3[nH]ccc23)c(C(C)(C)C)c1 [Compound 302, (E)-N′-((1H-indol-4-yl)methylene)-2-(2-tert-butyl-4-methoxyphenoxy)acetohydrazide] | 100%
13 | Cc1cc(-c2ccoc2)cc(C)c1OCC(=O)N/N=C/c1cccc2[nH]ccc12 [Compound 336, (E)-N′-((1H-indol-4-yl)methylene)-2-(4-(furan-3-yl)-2,6-dimethylphenoxy)acetohydrazide] | 100%
14 | O=C(COc1cccnc1-c1ccsc1)N/N=C/c1ccc2cc[nH]c2c1 [Compound 343, (E)-N′-((1H-indol-6-yl)methylene)-2-((2-(thiophen-3-yl)pyridin-3-yl)oxy)acetohydrazide] | 100%
15 | O=C(COc1cccnc1-c1ccoc1)N/N=C/c1cccc2[nH]ccc12 [Compound 319, (E)-N′-((1H-indol-4-yl)methylene)-2-((2-(furan-3-yl)pyridin-3-yl)oxy)acetohydrazide] | 100%
16 | Cc1cc(F)cc(C2CCOC2)c1OCC(=O)N/N=C/c1ccc2cc[nH]c2c1 (centres unmarked) [Compound 378, (E)-N′-((1H-indol-6-yl)methylene)-2-(4-fluoro-2-methyl-6-(tetrahydrofuran-3-yl)phenoxy)acetohydrazide] | 100%
17 | Cc1cc(C)c(OCC(=O)N/N=C/c2cccc3[nH]ccc23)c(-c2cccs2)c1 [Compound 344, (E)-N′-((1H-indol-4-yl)methylene)-2-(2,4-dimethyl-6-(thiophen-2-yl)phenoxy)acetohydrazide] | 100%
